Experimental data taken from ChEMBL document CHEMBL1148010, “Synthesis and biological evaluation of 2beta,3alpha-(substituted phenyl)nortropanes as potential norepinephrine transporter imaging agents” (Bioorg Med Chem Lett, 2007).

Legend:
[1] = biological target: Sodium-dependent noradrenaline transporter (Homo sapiens, UniProt P23975); test: Displacement of [3H]nisoxetine from human NET expressed in HEK293 cells; format: cell-based
[2] = biological target: Sodium-dependent serotonin transporter (Homo sapiens, UniProt P31645); test: Displacement of [3H]citalopram from human SERT expressed in HEK293 cells; format: cell-based
Sequence of Sodium-dependent serotonin transporter (P31645 whole entry): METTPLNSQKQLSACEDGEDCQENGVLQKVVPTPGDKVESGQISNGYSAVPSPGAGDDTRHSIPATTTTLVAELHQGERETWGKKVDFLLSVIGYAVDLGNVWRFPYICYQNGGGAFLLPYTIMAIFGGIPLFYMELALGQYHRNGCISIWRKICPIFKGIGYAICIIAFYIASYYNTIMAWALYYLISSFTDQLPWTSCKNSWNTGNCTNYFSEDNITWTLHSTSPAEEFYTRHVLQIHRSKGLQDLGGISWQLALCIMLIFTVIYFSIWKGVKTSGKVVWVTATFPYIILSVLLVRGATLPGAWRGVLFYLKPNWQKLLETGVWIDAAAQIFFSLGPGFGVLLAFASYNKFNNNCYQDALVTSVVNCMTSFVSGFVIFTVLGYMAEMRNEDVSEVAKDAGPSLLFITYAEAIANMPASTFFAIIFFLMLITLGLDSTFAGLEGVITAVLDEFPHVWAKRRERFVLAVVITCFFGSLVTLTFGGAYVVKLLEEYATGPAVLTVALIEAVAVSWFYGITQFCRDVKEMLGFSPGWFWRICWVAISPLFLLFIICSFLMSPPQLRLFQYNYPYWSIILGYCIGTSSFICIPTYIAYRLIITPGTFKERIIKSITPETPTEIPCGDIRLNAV

[3] = biological target: Sodium-dependent dopamine transporter (Homo sapiens, UniProt Q01959); test: Displacement of [125I]RTI55 from human DAT expressed in HEK293 cells; format: cell-based
Sequence of Sodium-dependent dopamine transporter (Q01959 whole entry): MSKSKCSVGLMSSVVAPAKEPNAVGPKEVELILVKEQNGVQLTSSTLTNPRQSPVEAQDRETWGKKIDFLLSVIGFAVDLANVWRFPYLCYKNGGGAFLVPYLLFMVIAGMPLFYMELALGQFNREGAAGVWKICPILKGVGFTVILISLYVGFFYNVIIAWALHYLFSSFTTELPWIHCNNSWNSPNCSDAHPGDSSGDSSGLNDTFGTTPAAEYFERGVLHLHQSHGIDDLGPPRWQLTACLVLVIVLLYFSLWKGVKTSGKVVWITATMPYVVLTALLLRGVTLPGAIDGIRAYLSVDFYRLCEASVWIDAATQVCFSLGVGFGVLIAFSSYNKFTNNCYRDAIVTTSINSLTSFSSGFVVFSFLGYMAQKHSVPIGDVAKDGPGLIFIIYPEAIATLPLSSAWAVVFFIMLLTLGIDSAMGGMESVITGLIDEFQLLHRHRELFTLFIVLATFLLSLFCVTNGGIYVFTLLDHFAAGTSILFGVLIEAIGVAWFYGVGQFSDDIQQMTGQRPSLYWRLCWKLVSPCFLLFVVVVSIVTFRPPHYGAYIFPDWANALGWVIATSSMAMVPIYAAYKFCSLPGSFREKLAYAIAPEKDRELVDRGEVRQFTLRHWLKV

[4] = biological target: Serotonin and norepinephrine transporters (SERT/NET) (Homo sapiens, UniProt P31645+P23975); test: Selectivity of human NET over human SERT expressed in HEK293 cells; format: cell-based
[5] = biological target: Monoamine transporters; Norepinephrine & dopamine (Homo sapiens, UniProt Q01959+P23975); test: Selectivity of human NET over human DAT expressed in HEK293 cells; format: cell-based
[6] = Drug level in Rhesus monkey plasma assessed as unmetabolized fractions at 3 mins; format: ADME, cell-free, Macaca mulatta; settings: read-out: Activity
[7] = Drug level in Rhesus monkey plasma assessed as unmetabolized fractions at 10 mins; format: ADME, cell-free, Macaca mulatta; settings: read-out: Activity
[8] = Drug level in Rhesus monkey plasma assessed as unmetabolized fractions at 30 mins; format: ADME, cell-free, Macaca mulatta; settings: read-out: Activity

Sequence of Sodium-dependent noradrenaline transporter (P23975 whole entry): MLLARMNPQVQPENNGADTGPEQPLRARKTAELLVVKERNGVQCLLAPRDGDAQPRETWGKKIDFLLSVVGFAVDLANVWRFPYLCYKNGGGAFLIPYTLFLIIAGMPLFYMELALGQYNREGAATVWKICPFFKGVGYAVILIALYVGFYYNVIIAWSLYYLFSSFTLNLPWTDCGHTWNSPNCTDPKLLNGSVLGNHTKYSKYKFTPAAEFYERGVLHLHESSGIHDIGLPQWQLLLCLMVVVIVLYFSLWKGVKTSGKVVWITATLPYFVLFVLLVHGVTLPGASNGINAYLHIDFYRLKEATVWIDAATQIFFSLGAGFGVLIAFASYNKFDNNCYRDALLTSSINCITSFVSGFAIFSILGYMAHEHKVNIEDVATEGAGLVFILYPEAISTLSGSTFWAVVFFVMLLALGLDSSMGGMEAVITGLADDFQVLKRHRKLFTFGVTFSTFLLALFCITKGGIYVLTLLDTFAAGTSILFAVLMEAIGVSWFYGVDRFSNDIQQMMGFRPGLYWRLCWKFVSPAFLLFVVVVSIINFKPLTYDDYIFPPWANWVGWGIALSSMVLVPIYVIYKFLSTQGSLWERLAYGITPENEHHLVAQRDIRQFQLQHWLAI

Row | SMILES | Ki [1] [nM] | Ki [2] [nM] | Ki [3] [nM] | NET over SERT selectivity ratio [4] [nM] | NET over DAT selectivity ratio (no unit) [5] [nM] | remaining at 0.05 h [6] [%] | remaining at 10 min [7] [%] | remaining at 0.5 h [8] [%]
1 | COC(=O)[C@@H]1[C@H]2CC[C@H](C[C@H]1c1ccc(C)cc1)N2 | 4.88 | 136 | 11.5 | 28 | 2.3 | – | – | –
2 | COC(=O)[C@@H]1[C@H]2CC[C@H](C[C@H]1c1ccc(C)c(F)c1)N2 | 1.78 | 42.8 | 6.42 | 24 | 3.6 | – | – | –
3 | C#Cc1ccc([C@@H]2C[C@H]3CC[C@@H](N3)[C@H]2C(=O)OC)cc1 | 1.86 | 3.45 | 2.26 | 1.8 | 1.2 | – | – | –
4 | C=Cc1ccc([C@@H]2C[C@H]3CC[C@@H](N3)[C@H]2C(=O)OC)cc1 | 4.67 | 9.04 | 10.1 | 1.9 | 2.2 | – | – | –
5 | Cc1ccc([C@@H]2C[C@H]3CC[C@@H](N3)[C@H]2C(=O)O[11CH3])cc1F | – | – | – | – | – | 25 | 7.5 | 1.6
6 | COC(=O)[C@@H]1[C@H]2CC[C@H](C[C@H]1c1ccc(I)cc1)N2 | 1.98 | 4.16 | 2.25 | 2.1 | 1.1 | – | – | –
